{"source": "paper PMC9569593", "about": "“Measurement of Hepatic CYP3A4 and 2D6 Activity Using Radioiodine-Labeled O-Desmethylvenlafaxine” (International Journal of Molecular Sciences, 2022)", "details": "for Biological distribution, Blood / Biological distribution, Brain / Biological distribution, Gallbladder / Biological distribution, Heart / Biological distribution, Kidney / Biological distribution, Large intestines / Biological distribution, Liver / Biological distribution, Lung / Biological distribution, Pancreas / Biological distribution, Small intestines / Biological distribution, Spleen / Biological distribution, Stomach / Biological distribution, Thyroid / Biological distribution, Urine: control normal mice, i.v.", "description": "For biological distribution in normal mice, ^125I-ODV was prepared to a radioactivity concentration of 185 kBq/mL by adding saline. A total of 20 mice fasted for 6 hr were administered ^125I-ODV via the tail vein (18.5 kBq/100 µL/mouse). After 5, 15, 30, and 60 min, normal mice were euthanized under isoflurane anesthesia (n = 4), and the following tissues were collected: blood, brain, heart, lung, thyroid, gallbladder, liver, spleen, pancreas, stomach, small intestines, large intestines, and kidney. Tissues were weighed, and radioactivity was quantified using a γ-ray counter to calculate the %ID or percent injected dose per gram of tissue (%ID/g).", "key": {"[1]": {"details": "normal mice, after 5 min of administration"}}, "note": "Read-outs that look alike come from different tables or passages of the source."}
{"compound": "CN(C)CC(c1ccc(O)c([125I])c1)C1(O)CCCCC1", "note": "(stereo not shown) [^125I-ODV, iodine-125-labeled O-desmethylvenlafaxine]", "values": [{"measurement": "Biological distribution, Blood", "setting": "5 min", "result": 1.89, "unit": "%ID/g"}, {"measurement": "Biological distribution, Brain", "setting": "5 min", "result": 0.80, "unit": "%ID/g"}, {"measurement": "Biological distribution, Gallbladder", "setting": "5 min", "result": 4.31, "unit": "%ID/g"}, {"measurement": "Biological distribution, Heart", "setting": "5 min", "result": 5.64, "unit": "%ID/g"}, {"measurement": "Biological distribution, Kidney", "setting": "5 min", "result": 22.95, "unit": "%ID/g"}, {"measurement": "Biological distribution, Large intestines", "setting": "5 min", "result": 1.32, "unit": "%ID/organ"}, {"measurement": "Biological distribution, Liver", "setting": "5 min", "result": 6.91, "unit": "%ID/g"}, {"measurement": "Biological distribution, Lung", "setting": "5 min", "result": 27.04, "unit": "%ID/g"}, {"measurement": "Biological distribution, Pancreas", "setting": "5 min", "result": 7.87, "unit": "%ID/g"}, {"measurement": "Biological distribution, Small intestines", "setting": "5 min", "result": 6.85, "unit": "%ID/organ"}, {"measurement": "Biological distribution, Spleen", "setting": "5 min", "result": 9.22, "unit": "%ID/g"}, {"measurement": "Biological distribution, Stomach", "setting": "5 min", "result": 2.44, "unit": "%ID/organ"}, {"measurement": "Biological distribution, Thyroid", "setting": "5 min", "result": 0.06, "unit": "%ID/organ"}, {"measurement": "Biological distribution, Urine", "setting": "5 min", "result": 0.63, "unit": "%ID/organ"}, {"measurement": "Biological distribution, Blood", "setting": "15 min", "result": 1.31, "unit": "%ID/g"}, {"measurement": "Biological distribution, Brain", "setting": "15 min", "result": 0.75, "unit": "%ID/g"}, {"measurement": "Biological distribution, Gallbladder", "setting": "15 min", "result": 5.26, "unit": "%ID/g"}, {"measurement": "Biological distribution, Heart", "setting": "15 min", "result": 2.71, "unit": "%ID/g"}, {"measurement": "Biological distribution, Kidney", "setting": "15 min", "result": 16.37, "unit": "%ID/g"}, {"measurement": "Biological distribution, Large intestines", "setting": "15 min", "result": 1.18, "unit": "%ID/organ"}, {"measurement": "Biological distribution, Liver", "setting": "15 min", "result": 6.04, "unit": "%ID/g"}, {"measurement": "Biological distribution, Lung", "setting": "15 min", "result": 16.75, "unit": "%ID/g"}, {"measurement": "Biological distribution, Pancreas", "setting": "15 min", "result": 6.04, "unit": "%ID/g"}, {"measurement": "Biological distribution, Small intestines", "setting": "15 min", "result": 7.70, "unit": "%ID/organ"}, {"measurement": "Biological distribution, Spleen", "setting": "15 min", "result": 4.79, "unit": "%ID/g"}, {"measurement": "Biological distribution, Stomach", "setting": "15 min", "result": 3.19, "unit": "%ID/organ"}, {"measurement": "Biological distribution, Thyroid", "setting": "15 min", "result": 0.03, "unit": "%ID/organ"}, {"measurement": "Biological distribution, Urine", "setting": "15 min", "result": 3.37, "unit": "%ID/organ"}, {"measurement": "Biological distribution, Blood", "setting": "30 min", "result": 1.34, "unit": "%ID/g"}, {"measurement": "Biological distribution, Brain", "setting": "30 min", "result": 0.73, "unit": "%ID/g"}, {"measurement": "Biological distribution, Gallbladder", "setting": "30 min", "result": 24.23, "unit": "%ID/g"}, {"measurement": "Biological distribution, Heart", "setting": "30 min", "result": 2.04, "unit": "%ID/g"}, {"measurement": "Biological distribution, Kidney", "setting": "30 min", "result": 14.27, "unit": "%ID/g"}, {"measurement": "Biological distribution, Large intestines", "setting": "30 min", "result": 0.68, "unit": "%ID/organ"}, {"measurement": "Biological distribution, Liver", "setting": "30 min", "result": 5.45, "unit": "%ID/g"}, {"measurement": "Biological distribution, Lung", "setting": "30 min", "result": 13.30, "unit": "%ID/g"}, {"measurement": "Biological distribution, Pancreas", "setting": "30 min", "result": 5.02, "unit": "%ID/g"}, {"measurement": "Biological distribution, Small intestines", "setting": "30 min", "result": 8.47, "unit": "%ID/organ"}, {"measurement": "Biological distribution, Spleen", "setting": "30 min", "result": 3.45, "unit": "%ID/g"}, {"measurement": "Biological distribution, Stomach", "setting": "30 min", "result": 2.75, "unit": "%ID/organ"}, {"measurement": "Biological distribution, Thyroid", "setting": "30 min", "result": 0.04, "unit": "%ID/organ"}, {"measurement": "Biological distribution, Urine", "setting": "30 min", "result": 3.69, "unit": "%ID/organ"}, {"measurement": "Biological distribution, Blood", "setting": "60 min", "result": 0.74, "unit": "%ID/g"}, {"measurement": "Biological distribution, Brain", "setting": "60 min", "result": 0.60, "unit": "%ID/g"}, {"measurement": "Biological distribution, Gallbladder", "setting": "60 min", "result": 33.05, "unit": "%ID/g"}, {"measurement": "Biological distribution, Heart", "setting": "60 min", "result": 1.00, "unit": "%ID/g"}, {"measurement": "Biological distribution, Kidney", "setting": "60 min", "result": 9.42, "unit": "%ID/g"}, {"measurement": "Biological distribution, Large intestines", "setting": "60 min", "result": 0.47, "unit": "%ID/organ"}, {"measurement": "Biological distribution, Liver", "setting": "60 min", "result": 2.89, "unit": "%ID/g"}, {"measurement": "Biological distribution, Lung", "setting": "60 min", "result": 5.01, "unit": "%ID/g"}, {"measurement": "Biological distribution, Pancreas", "setting": "60 min", "result": 2.92, "unit": "%ID/g"}, {"measurement": "Biological distribution, Small intestines", "setting": "60 min", "result": 11.03, "unit": "%ID/organ"}, {"measurement": "Biological distribution, Spleen", "setting": "60 min", "result": 1.75, "unit": "%ID/g"}, {"measurement": "Biological distribution, Stomach", "setting": "60 min", "result": 1.88, "unit": "%ID/organ"}, {"measurement": "Biological distribution, Thyroid", "setting": "60 min", "result": 0.02, "unit": "%ID/organ"}, {"measurement": "Biological distribution, Urine", "setting": "60 min", "result": 7.31, "unit": "%ID/organ"}, {"measurement": "accumulation in the kidneys", "setting": "[1]", "result": "more than 20%"}, {"measurement": "accumulation in the lungs", "setting": "[1]", "result": "more than 20%"}]}
